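Where inhibition never reached the appropriate level, the endpoint shown equals the highest concentration tested. Otherwise, values were interpolated linearly from a five-concentration, 48-hour dose response in 96-well plates. TGI is the concentration that stops growth completely.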
Columns and labels:
Assay in all cases: NCI tumour cell line growth inhibition, 48 h
786-0 renal = test system: 786-0 renal
ACHN renal = test system: ACHN renal
CCRF-CEM leukemia = test system: CCRF-CEM leukemia
EKVX NSCLC = test system: EKVX NSCLC
HCC-2998 colon = test system: HCC-2998 colon
HCT-116 colon = test system: HCT-116 colon
HCT-15 colon = test system: HCT-15 colon
HL-60(TB) leukemia = test system: HL-60(TB) leukemia
HOP-62 NSCLC = test system: HOP-62 NSCLC
HS 578T breast = test system: HS 578T breast
HT29 colon = test system: HT29 colon
K-562 leukemia = test system: K-562 leukemia
KM12 colon = test system: KM12 colon
MALME-3M melanoma = test system: MALME-3M melanoma
MCF7 breast = test system: MCF7 breast
MOLT-4 leukemia = test system: MOLT-4 leukemia
NCI-H226 lung = test system: NCI-H226 lung
NCI-H23 lung = test system: NCI-H23 lung
NCI-H460 lung = test system: NCI-H460 lung
NCI-H522 lung = test system: NCI-H522 lung
OVCAR-3 ovarian = test system: OVCAR-3 ovarian
OVCAR-5 ovarian = test system: OVCAR-5 ovarian
OVCAR-8 ovarian = test system: OVCAR-8 ovarian
PC-3 prostate = test system: PC-3 prostate
RPMI-8226 leukemia = test system: RPMI-8226 leukemia
SF-268 CNS = test system: SF-268 CNS
SF-295 CNS = test system: SF-295 CNS
SF-539 CNS = test system: SF-539 CNS
SK-MEL-2 melanoma = test system: SK-MEL-2 melanoma
SK-MEL-28 melanoma = test system: SK-MEL-28 melanoma
SN12C renal = test system: SN12C renal
SNB-75 CNS = test system: SNB-75 CNS
SR leukemia = test system: SR leukemia
TK-10 renal = test system: TK-10 renal
U251 CNS = test system: U251 CNS
UACC-257 melanoma = test system: UACC-257 melanoma

Measured: TGI

O=C(NCCCn1ccnc1[N+](=O)[O-])C(=O)NCCCn1ccnc1[N+](=O)[O-]
> 100 µM: 786-0 renal | ACHN renal | CCRF-CEM leukemia | EKVX NSCLC | HCC-2998 colon | HCT-116 colon | HCT-15 colon | HL-60(TB) leukemia | HOP-62 NSCLC | HS 578T breast | HT29 colon | K-562 leukemia | KM12 colon | MALME-3M melanoma | MCF7 breast | MOLT-4 leukemia | NCI-H226 lung | NCI-H23 lung | NCI-H460 lung | NCI-H522 lung | OVCAR-3 ovarian | OVCAR-5 ovarian | OVCAR-8 ovarian | PC-3 prostate | RPMI-8226 leukemia | SF-268 CNS | SF-295 CNS | SF-539 CNS | SK-MEL-2 melanoma | SK-MEL-28 melanoma | SN12C renal | SNB-75 CNS | SR leukemia | TK-10 renal | U251 CNS | UACC-257 melanoma

From PubChem BioAssay (NCI)
